One data set deals with Human Arginase 1 (Homo sapiens (Human), UniProt P05089). Put plainly: Human Arginase 1 enzyme inhibition (thioarginine/DTNB absorbance assay). The data set is classed as biochemical. Particulars: recombinant enzyme 5 nM, 0.5 mM thioarginine premix, 60 min. As to the method: (§1) The thiol group was detected with Ellman's reagent, 5,5′-dithiobis(2-nitrobenzoic acid) (DTNB). DTNB reacts with the thiol to give the mixed disulfide and 2-nitro-5-thiobenzoic acid (TNB) which is quantified by the absorbance of the anion (TNB^2−) at 412 nm.
(§2) The assays were run in clear 384 well plates (Greiner cat no: 781101). […] Two pre-mixes were prepared from reagents thawed immediately before addition to assay plates. Pre-mix one comprised human Arginase 1 or human Arginase 2, at a final concentration of 5 nM and 0.5 mM DTNB in assay buffer, 45 mM HEPES pH7.5, brij 35, 0.045% (w/v) and 100 μM MnCl2. Pre-mix two comprised freshly thawed 0.5 mM thioarginine in assay buffer.
(§3) Assay plates were centrifuged prior to reading absorbance at 412 nm in a Pherastar multi-mode plate reader to collect data at time point 0 (T0). The plates were incubated at room temperature for 60 min prior to reading again to collect data at time point 1 (T1). Data is derived by subtracting the A412 signal measured at T0 (time point 0) from that measured at T1 (time point 1). The data was transformed to % effect using the equation: Compound % effect=100*[(X−min)/(max−min)], where X represents the normalized value for the compound based on the Min (vehicle) and Max (reference compound) inhibition control.

The next data set addresses Human Arginase 2 (Homo sapiens (Human), UniProt P78540). Put plainly: Human Arginase 2 enzyme inhibition (thioarginine/DTNB absorbance assay). The settings on record: recombinant enzyme 5 nM, 0.5 mM thioarginine premix, 60 min. The format is biochemical. On the procedure:
as §1, §2, §3

Data set [1] in a line: Bioavailability / pharmacokinetic study in male rats (IV and PO). The data set is classed as in vivo, rat. The settings on record: plasma, pro-drug itself, observed when dosed as pro-drug, male rat; for clearance / Vd: IV 2 mg/kg; for Vd: read-out: Vdss; for AUC / Cmax / Tmax: PO 5 mg/kg; for bioavailability: PO 5 mg/kg vs IV 2 mg/kg. As to the method:
Example 8 was formulated in 0.9% w/v saline pH 4 (adjusted with 1M HCl) for IV dosing. The formulation was dosed at 2 mg/kg by femoral catheter to two male rats each (170-250 g). Jugular vein catheter serial blood samples were taken at 0.033, 0.083, 0.167, 0.5, 1, 2, 4, 8, and 24 hrs post-dose. For PO dosing, Example 8 was formulated in deionized water pH 4 (adjusted with 1M HCl) and dosed at 5 mg/kg by oral gavage to two male rats each (170-250 g). Serial blood samples were taken by jugular vein catheter at 0.25, 0.5, 1, 1.5, 2, 3, 4, 8, and 24 hrs post dose. Plasma samples were generated from blood using low speed centrifugation. […] The samples and standards were extracted by precipitation with two volumes of acetonitrile followed by centrifugation. […] Where appropriate, measured and not nominal doses were used to calculate bioavalability.

The text below walks through data of patent US11420984B2, “Arginase inhibitors and methods of use thereof” (AstraZeneca AB, priority 2018, dated 2022).

Where only a bound is given, the exact number is not on record here.

Chain of Human Arginase 2 (P78540 23-354): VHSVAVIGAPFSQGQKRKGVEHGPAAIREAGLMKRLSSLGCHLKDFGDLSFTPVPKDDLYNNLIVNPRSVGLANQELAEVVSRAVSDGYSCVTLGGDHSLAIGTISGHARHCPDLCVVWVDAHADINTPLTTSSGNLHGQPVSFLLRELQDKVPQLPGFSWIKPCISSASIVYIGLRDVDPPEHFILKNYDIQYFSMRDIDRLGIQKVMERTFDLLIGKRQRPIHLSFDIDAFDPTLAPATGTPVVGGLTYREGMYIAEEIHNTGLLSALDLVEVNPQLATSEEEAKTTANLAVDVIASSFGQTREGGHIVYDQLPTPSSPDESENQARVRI
Chain of Human Arginase 1 (P05089 whole entry): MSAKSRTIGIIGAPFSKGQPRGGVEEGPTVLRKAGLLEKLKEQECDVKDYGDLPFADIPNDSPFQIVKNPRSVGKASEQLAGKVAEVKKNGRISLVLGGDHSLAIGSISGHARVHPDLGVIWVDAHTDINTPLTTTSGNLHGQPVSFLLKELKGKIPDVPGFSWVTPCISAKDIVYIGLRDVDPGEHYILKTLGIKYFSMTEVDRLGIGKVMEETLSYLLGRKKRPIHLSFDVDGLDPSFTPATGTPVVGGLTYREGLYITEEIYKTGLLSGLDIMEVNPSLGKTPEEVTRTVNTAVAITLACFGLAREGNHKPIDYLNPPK

What is called IC50 is the concentration that gives 50% inhibition. Regarding `NCCN[C@H]1CN[C@@](CCCCB(O)O)(C(=O)O)C1` [Example 27, (2R,4R)-4-(2-aminoethylamino)-2-(4-boronobutyl)pyrrolidine-2-carboxylic acid], the half-inhibitory concentration (IC50) on Human Arginase 1 came to 1430 nM; on Human Arginase 2, 3320 nM.

For `O=C(O)[C@@]1(CCCCB(O)O)C[C@@H](O)CN1` [Example 3, (2R,4R)-2-(4-boronobutyl)-4-hydroxypyrrolidine-2-carboxylic acid], the half-maximal inhibitory concentration (IC50) on Human Arginase 1 was determined as 4550 nM; on Human Arginase 2, 10400 nM.

With `O=C(O)[C@@]1(CCCCB(O)O)CCCN1` [Example 1, (R)-2-(4-boronobutyl)pyrrolidine-2-carboxylic acid], the results for the concentration for half-maximal inhibition (IC50) at Human Arginase 1 and at Human Arginase 2 were 14700 nM and 23000 nM, respectively.

In the case of `CN[C@H]1CN[C@@](CCCCB(O)O)(C(=O)O)C1` [Example 23, (2R,4R)-2-(4-boronobutyl)-4-(methylamino)pyrrolidine-2-carboxylic acid], the results for the IC50 on Human Arginase 1 and at Human Arginase 2 were 1140 nM and 2120 nM, respectively.

As to `CN(C)[C@H]1CN[C@@](CCCCB(O)O)(C(=O)O)C1` [Example 25, (2R,4R)-2-(4-boronobutyl)-4-(dimethylamino)pyrrolidine-2-carboxylic acid], the IC50 worked out at 10800 nM at Human Arginase 1 and 24600 nM on Human Arginase 2.

For the compound `CC(C)C[C@H](N)C(=O)N[C@H]1CN[C@@](CCCCB(O)O)(C(=O)O)C1` [Example 16, (2R,4R)-4-((S)-2-amino-4-methylpentanamido)-2-(4-boronobutyl)pyrrolidine-2-carboxylic acid], the IC50 at Human Arginase 1 worked out at 310 nM. The IC50 at Human Arginase 2 turned out to be 310 nM. Further, in data set [1], the clearance is 585 mL/min/kg and the Vd turned out to be 7.41 L/kg.

`CC[C@H](C)[C@H](N)C(=O)N[C@H]1CN[C@@](CCCCB(O)O)(C(=O)O)C1` [Example 15, (2R,4R)-4-((2S,3S)-2-amino-3-methylpentanamido)-2-(4-boronobutyl)pyrrolidine-2-carboxylic acid]: the IC50 at Human Arginase 1 was 310 nM. Moreover, the half-maximal inhibitory concentration (IC50) at Human Arginase 2 was found to be 260 nM. Further, in data set [1], the clearance came out at 104 mL/min/kg and the Vd worked out at 0.46 L/kg.

As to `CN(C)[C@H]1CN[C@](CCCCB(O)O)(C(=O)O)C1` [Example 26, (2S,4R)-2-(4-boronobutyl)-4-(dimethylamino)pyrrolidine-2-carboxylic acid], the IC50 on Human Arginase 1 was determined as 60 nM; on Human Arginase 2, 150 nM.

Regarding `O=C(O)[C@@]1(CCCCB(O)O)C[C@H](O)CN1` [Example 2, (2R,4S)-2-(4-boronobutyl)-4-hydroxypyrrolidine-2-carboxylic acid], the concentration for half-maximal inhibition (IC50) was determined as 26600 nM on Human Arginase 1 and 21400 nM on Human Arginase 2.

Turning to `CN[C@H]1CN[C@](CCCCB(O)O)(C(=O)O)C1` [Example 24, (2S,4R)-2-(4-boronobutyl)-4-(methylamino)pyrrolidine-2-carboxylic acid], the IC50 was less than 3 nM at Human Arginase 1 and 10 nM at Human Arginase 2.

With `CC(C)[C@H](N)C(=O)N(C)[C@H]1CN[C@@](CCCCB(O)O)(C(=O)O)C1` [Example 29, (2R,4R)-4-[[(2S)-2-amino-3-methyl-butanoyl]-methyl-amino]-2-(4-boronobutyl)pyrrolidine-2-carboxylic acid], the results for the IC50 on Human Arginase 1 and on Human Arginase 2 were 5270 nM and 9280 nM, respectively.

As for `CC[C@H](N)C(=O)N[C@H]1CN[C@@](CCCCB(O)O)(C(=O)O)C1` [Example 14, (2R,4R)-4-((S)-2-aminobutanamido)-2-(4-boronobutyl)pyrrolidine-2-carboxylic acid], the IC50 at Human Arginase 1 was found to be 260 nM; at Human Arginase 2 it was 310 nM.

Turning to `CC(C)(C)[C@H](N)C(=O)N[C@H]1CN[C@@](CCCCB(O)O)(C(=O)O)C1` [Example 11, (2R,4R)-4-((S)-2-amino-3,3-dimethylbutanamido)-2-(4-boronobutyl)pyrrolidine-2-carboxylic acid], the figures for the IC50 at Human Arginase 1 and at Human Arginase 2 were 210 nM and 200 nM, respectively.

For `CC(C)[C@](C)(N)C(=O)N[C@H]1CN[C@@](CCCCB(O)O)(C(=O)O)C1` [Example 21, (2R,4R)-4-[[(2S)-2-amino-2,3-dimethyl-butanoyl]amino]-2-(4-boronobutyl)pyrrolidine-2-carboxylic acid], the IC50 at Human Arginase 1 was determined as 480 nM; at Human Arginase 2, 680 nM.

Consider `C[C@H](N)C(=O)N[C@H]1CN[C@@](CCCCB(O)O)(C(=O)O)C1` [Example 8, (2R,4R)-4-((S)-2-aminopropanamido)-2-(4-boronobutyl)pyrrolidine-2-carboxylic acid], for which the IC50 at Human Arginase 1 stood at 610 nM; on Human Arginase 2, 560 nM.

On to `CC(C)[C@@H](N)C(=O)N[C@H]1CN[C@@](CCCCB(O)O)(C(=O)O)C1` [Example 10, (2R,4R)-4-((R)-2-amino-3-methylbutanamido)-2-(4-boronobutyl)pyrrolidine-2-carboxylic acid], for which the values for the IC50 at Human Arginase 1 and on Human Arginase 2 were 3770 nM and 4770 nM, respectively.

Take `NC[C@H](N)C(=O)N[C@H]1CN[C@@](CCCCB(O)O)(C(=O)O)C1` [Example 22, (2R,4R)-2-(4-boronobutyl)-4-[[(2S)-2,3-diaminopropanoyl]amino]pyrrolidine-2-carboxylic acid]: the IC50 at Human Arginase 1 turned out to be 930 nM; at Human Arginase 2 it was 1320 nM.

Broadly, the AUC is concentration integrated over time. Low readings indicate less exposure, high ones more exposure. For orientation: Cmax means the highest concentration seen after dosing. The Tmax is the time at which the peak concentration occurs. Broadly, the bioavailability is dose-corrected exposure relative to a reference, in per cent. A lower bioavailability goes with poor availability. Take `NCC(=O)N[C@H]1CN[C@@](CCCCB(O)O)(C(=O)O)C1` [Example 13, (2R,4R)-4-(2-aminoacetamido)-2-(4-boronobutyl)pyrrolidine-2-carboxylic acid]: at Human Arginase 1, the half-inhibitory concentration (IC50) was 430 nM. Further, the IC50 on Human Arginase 2 was found to be 630 nM. Further, in data set [1], the clearance came out at 17.9 mL/min/kg, the Vd is 0.2 L/kg, the AUC was 0.62 µM·h and the highest level (Cmax) was 460 nM. Also, in data set [1], the Tmax was 30 min and the bioavailability amounted to 3.8%.

In the case of `NCCN[C@H]1CN[C@](CCCCB(O)O)(C(=O)O)C1` [Example 28, (2S,4R)-4-(2-aminoethylamino)-2-(4-boronobutyl)pyrrolidine-2-carboxylic acid], the IC50 at Human Arginase 1 was 90 nM; at Human Arginase 2, 190 nM.

With `N[C@@H](CO)C(=O)N[C@H]1CN[C@@](CCCCB(O)O)(C(=O)O)C1` [Example 17, (2R,4R)-4-((S)-2-amino-3-hydroxypropanamido)-2-(4-boronobutyl)pyrrolidine-2-carboxylic acid], the IC50 at Human Arginase 1 came to 200 nM. The IC50 on Human Arginase 2 turned out to be 230 nM. In data set [1], the clearance is 40.5 mL/min/kg, the Vd was determined as 0.36 L/kg, the AUC was 0.38 µM·h and the peak concentration (Cmax) is 430 nM. Further, in data set [1], the Tmax was determined as 22.8 min and the bioavailability came to 5.8%.

On to `COC[C@H](N)C(=O)N[C@H]1CN[C@@](CCCCB(O)O)(C(=O)O)C1` [Example 18, (2R,4R)-4-((S)-2-amino-3-methoxypropanamido)-2-(4-boronobutyl)pyrrolidine-2-carboxylic acid], for which the IC50 on Human Arginase 1 came to 320 nM. Besides, the IC50 at Human Arginase 2 came out at 380 nM. In data set [1], the clearance turned out to be 317 mL/min/kg and the Vd turned out to be 0.64 L/kg.

On to `CC(C)(O)[C@H](N)C(=O)N[C@H]1CN[C@@](CCCCB(O)O)(C(=O)O)C1` [Example 20, (2R,4R)-4-[[(2S)-2-amino-3-hydroxy-3-methyl-butanoyl]amino]-2-(4-boronobutyl)pyrrolidine-2-carboxylic acid], for which, on Human Arginase 1, the IC50 amounted to 340 nM. Also, the IC50 at Human Arginase 2 stood at 520 nM. In data set [1], the clearance stood at 8.9 mL/min/kg, the Vd worked out at 0.29 L/kg, the AUC came to 6.9 µM·h and the Cmax stood at 1800 nM. Further, in data set [1], the time of peak concentration (Tmax) turned out to be 60 min and the bioavailability came to 25.5%.

With `CC(C)[C@H](N)C(=O)N(C)[C@H]1CN[C@](CCCCB(O)O)(C(=O)O)C1` [Example 30, (2S,4R)-4-[[(2S)-2-amino-3-methyl-butanoyl]-methyl-amino]-2-(4-boronobutyl)pyrrolidine-2-carboxylic acid], the results for the IC50 at Human Arginase 1 and at Human Arginase 2 were 1350 nM and 2420 nM, respectively.

On to `O=C(N[C@H]1CN[C@@](CCCCB(O)O)(C(=O)O)C1)[C@@H]1CCCN1` [Example 12, (2R,4R)-2-(4-boronobutyl)-4-((S)-pyrrolidine-2-carboxamido)pyrrolidine-2-carboxylic acid], for which the IC50 on Human Arginase 1 is 700 nM; at Human Arginase 2, 850 nM.
